Experimental data: ChEMBL document CHEMBL1148110, “New lanostanoids from the fungus Ganoderma concinna” (J Nat Prod, 2002)
The source made the active and inactive calls. The rule behind the calls is not given here.

How the values were obtained:
HL-60 [1] = assay: Induction of apoptosis in human HL60 cells assessed as intranucleosomal hydrolysis of chromatin at 30 uM after 24 hrs by agarose gel electrophoresis; assay type: functional, cell-based
HL-60 [2] = assay: Induction of apoptosis in human HL60 cells assessed as chromatin condensation and fragmentation at 30 uM after 24 hrs by quantitative fluorescent microscopy
HL-60 [3] = assay: Induction of apoptosis in human HL60 cells assessed as morphological changes at 30 uM after 24 hrs by Hoechst 33258 staining; assay type: functional, cell-based
HL-60 [4] = assay: Cytotoxicity against human HL60 cells after 24 hrs by MTT assay; assay type: functional, cell-based; conditions: HL-60, 24 h

CC(=O)[C@H]1CC(=O)[C@@]2(C)[C@]34O[C@@]3(C(=O)C[C@]12C)[C@@]1(C)CCC(=O)C(C)(C)[C@@H]1CC4=O
Activity (HL-60 [1]): Active
Activity (HL-60 [2]): 12%

C/C(C=O)=C/CC[C@@H](C)[C@H]1CC[C@@]2(C)C3=CC[C@H]4C(C)(C)[C@@H](O)CC[C@]4(C)C3=CC[C@]12C
Activity (HL-60 [1]): Active
Activity (HL-60 [2]): 15%

C/C(=C/CC[C@@H](C)[C@H]1C[C@H](O)[C@@]2(C)C3=CC[C@H]4C(C)(C)C(=O)CC[C@]4(C)C3=CC[C@]12C)CO
Activity (HL-60 [3]): Active
Activity (HL-60 [1]): Active
IC50 (HL-60 [4]): 15.7 µM
Activity (HL-60 [2]): 62%
